For data set [1] the following is noted: in vitro; cited from earlier work.
Data set [2] in a line: Plasma TCHO, TG, LDL, VLDL measured with kits at end of study. It counts as in vivo, C57BL/6 male mice. The conditions noted are these: HFD obese mice, DHB 70 mg/kg i.g. daily with or without EODF vs no DHB. On the procedure:
(§1) 50 C57BL/6 male mice aged about 8 weeks, are randomly assigned to five study groups (GA, GB1, GB2, GB3, GB4) of ten mice each (one cage, n=5 per condition). Mice were maintained in a pathogen free condition under a strict 12 h light/dark cycle (0600/1800 h) with 12-15 cycles/hour of air change. Mice were provided with access to respective feed and water ad libitum as per experimental conditions. Mice were housed under controlled laboratory conditions of temperature and humidity at 23±2° C. and 50±10% RH, respectively. Each study group consisted of ten animals, and treatment details of the individual study groups are given below: • Group A (GA, NC): Normal mice, maintained on normal diet (standard chow, 12% calories from fat; 23% calories from protein and 65% calories from carbohydrates) for 8 weeks, receiving neither EODF nor DHB treatment. • Group B1 (GB1): Obese mice, maintained on high fat diet (HFD, 60% calories from fat, 20% calories from protein, 20% calories from carbohydrate) for 8 weeks, receiving neither EODF nor DHB treatment. • Group B2 (GB2): Obese mice, maintained on HFD for 8 weeks, receiving only EODF and no DHB treatment. • Group B3 (GB3): Obese mice, maintained on HFD for 8 weeks, receiving only DHB treatment and no EODF. • Group B4 (GB4): Obese mice, maintained on HFD for 8 weeks, receiving DHB treatment and EODF combination. DHB was administered daily via intragastric injection (i.g.) according to a level of 70 mg/kg body weight. Mice not receiving DHB were given orally with ultrapure water. At the end of the study blood was collected from all test groups and a various clinical parameter: plasma total cholesterol (TCHO), triglyceride (TG), low density lipoprotein (LDL), very low-density lipoprotein (VLDL) were measured using corresponding kits according to the manufacturers' instructions.

A short description of data set [3]: Serum insulin and leptin by ELISA at end of treatment. It counts as in vivo, C57BL/6 male mice. The conditions noted are these: HFD obese mice. Here is the method:
50 C57BL/6 male mice aged about 8 weeks, are randomly assigned to five study groups (GA, GB1, GB2, GB3, GB4) of ten mice each (one cage, n=5 per condition). Mice were maintained in a pathogen free condition under a strict 12 h light/dark cycle (0600/1800 h) with 12-15 cycles/hour of air change. Mice were provided with access to respective feed and water ad libitum as per experimental conditions. Mice were housed under controlled laboratory conditions of temperature and humidity at 23±2° C. and 50±10% RH, respectively. Each study group consisted of ten animals, and treatment details of the individual study groups are given below: • Group A (GA, NC): Normal mice, maintained on normal diet (standard chow, 12% calories from fat; 23% calories from protein and 65% calories from carbohydrates) for 8 weeks, receiving neither EODF nor DHB treatment. • Group B1 (GB1): Obese mice, maintained on high fat diet (HFD, 60% calories from fat, 20% calories from protein, 20% calories from carbohydrate) for 8 weeks, receiving neither EODF nor DHB treatment. • Group B2 (GB2): Obese mice, maintained on HFD for 8 weeks, receiving only EODF and no DHB treatment. • Group B3 (GB3): Obese mice, maintained on HFD for 8 weeks, receiving only DHB treatment and no EODF. • Group B4 (GB4): Obese mice, maintained on HFD for 8 weeks, receiving DHB treatment and EODF combination. DHB was administered daily via intragastric injection (i.g.) according to a level of 70 mg/kg body weight. Mice not receiving DHB were given orally with ultrapure water. Serum levels of insulin and leptin were determined at the end of the treatment period by standard ELISA methods. Since one key feature of obesity is the development of insulin and leptin resistance resulting in an elevation of the circulating levels of these two hormones as a consequence of compensatory physiological responses to insulin and leptin insensitivity, thus leptin is one of the major adipocytokines associated with maintaining glucose homeostasis.

The conditions of data set [4]: mice, including mice lacking the intestinal bacteria needed to break down BBR; cited from earlier work.
The test system of a further data set is ADRB3. Kind of data set: mRNA levels of ADRB3 from inguinal WAT by qRT-PCR. The data set is classed as in vivo, C57BL/6 male mice. The conditions noted are these: HFD obese mice. Here is the method: as §1, with “The mRNA levels” for “At the end”, “ADRB3 protein” for “the study blood was collected”, “inguinal WAT” for “all test groups and a various clinical parameter: plasma total cholesterol (TCHO), triglyceride (TG), low density lipoprotein (LDL), very low-density lipoprotein (VLDL)”, “determined by qRT-PCR.” for “measured using corresponding kits according to the manufacturers' instructions.”
On the technique in general: Real-time PCR tracks product formation cycle by cycle.

Setting [5] is: DHB + EODF combination vs EODF only.
Setting [6] is: DHB 70 mg/kg i.g. daily with or without EODF vs no DHB.

For the molecule `COc1ccc2c(c1OC)CN1CCc3cc4c(cc3C1=C2)OCO4` [DHB, Dihydroberberine], in data set [1], the “intestinal absorption rate relative to BBR” value is reported as “five times higher”. Further, the TG entry in data set [2] (FIG. 5) was “lower levels”. Also, the TCHO entry in data set [2] (FIG. 6) is “lower levels”. Also, in data set [2] (FIG. 7), the LDL entry is “lower levels”. Further, the VLDL result in data set [2] (FIG. 8) is on record as “lower levels”. Moreover, in data set [3] (DHB 70 mg/kg i.g. daily with or without EODF vs no DHB, FIG. 9), the “insulin resistance (serum levels of insulin)” value is on record as “improved”. The “leptin resistance (serum levels of leptin)” value in data set [3] (DHB 70 mg/kg i.g. daily with or without EODF vs no DHB, FIG. 10) is “improved”. In data set [3] (setting [5]), the improving insulin resistance result was “greater effects” and the improving leptin resistance entry was “greater effects”. Besides, in data set [4], the “absorption compared with BBR” value is recorded as “better absorbed”. Further, in the data set on ADRB3 (setting [6]), the “ADRB3 abundance (mRNA, inguinal WAT)” value is given as “increasing” and the “lipolysis specifically in WAT” value was “upregulated”. For the same molecule, the “triggering lipolysis specifically in WAT” value with ADRB3 (setting [5]) is listed as “greater effects”.

These data come from patent US20250360113A1, “ADMINISTRATION OF DHB TO INCREASE BENEFIT OF LOSING WEIGHT OF INTERMITTENT FASTING” (NANJING NUTRABUILDING BIO-TECH CO., LTD., priority 2023, published 2025).
